We go through three compounds from patent US20040122089A1, “Novel eicosanoid analgesics” (priority 2001, published 2004).

Read-outs that look alike come from different tables or passages of the source. Some results are limits rather than exact numbers.

Assay [1] addresses T1, CB1 receptors (Rattus norvegicus, UniProt P20272). The assay is described as follows: CB1 receptor binding, displacement of [3H]CP-55,940 from rat brain P2 membranes (Example 2). Also noted: from tissue; host or cells: whole rat brain membranes. The note with it: CB1 (Ki, nM), rat brain membranes. The method, then:
(§1) For CB1 receptor binding, [^3H]CP-55,940 (Kd=[…]) was incubated with P2 membranes from whole rat brains as described in Compton et al., J. Pharm. Exp. Ther. 265:218-226 (1993). Displacement curves were generated by incubating drugs with 1 nM of [^3H]CP-55,940. The assays were performed in triplicate, and the results represent the combined data from three individual experiments. A separate set of experiments were conducted in which phenylmthylsulfonylfluoride (PMSF) was added at a concentration of 100 μm in order to prevent possible metabolism of the analogs. CB2 binding assays were performed as described in Melek et al., ibid. In all cases, Ki values were calculated applying the Cheng-Prusoff equation to the IC50 values (obtained by GraphPad) for the displacement of the bound radioligand by increasing concentrations of the test compounds.
(§2) In Table 1, affinity for CB1 and CB2 receptors was measured in displacement assays carried out using rat brain or spleen membranes and [^3H]CP 55,940 or […], respectively. Potency at human VR1 was established by measuring the stimulatory activity of the compounds on the Ca^2+ intracellular concentration in HEK cells transfected with cDNA encoding the human VR1 receptor. Efficacy at VR1 was measured by expressing the effect of a maximal concentration of each compound (usually 10 μM) as percent of the maximal possible effect obtained with 4 μM ionomycin. Data are means ±SEM of at least n=3 separate determinations. *Ki was determined in the presence of PMSF.

Assay [2] concerns the target T2, fatty acid amide hydrolase (FAAH) (Mus musculus, UniProt O08914).
T2 construct: membranes prepared from N18TG2 cells; endogenous in cells; host or cells: N18TG2 cell membranes
T2 sequence (O08914 1-579): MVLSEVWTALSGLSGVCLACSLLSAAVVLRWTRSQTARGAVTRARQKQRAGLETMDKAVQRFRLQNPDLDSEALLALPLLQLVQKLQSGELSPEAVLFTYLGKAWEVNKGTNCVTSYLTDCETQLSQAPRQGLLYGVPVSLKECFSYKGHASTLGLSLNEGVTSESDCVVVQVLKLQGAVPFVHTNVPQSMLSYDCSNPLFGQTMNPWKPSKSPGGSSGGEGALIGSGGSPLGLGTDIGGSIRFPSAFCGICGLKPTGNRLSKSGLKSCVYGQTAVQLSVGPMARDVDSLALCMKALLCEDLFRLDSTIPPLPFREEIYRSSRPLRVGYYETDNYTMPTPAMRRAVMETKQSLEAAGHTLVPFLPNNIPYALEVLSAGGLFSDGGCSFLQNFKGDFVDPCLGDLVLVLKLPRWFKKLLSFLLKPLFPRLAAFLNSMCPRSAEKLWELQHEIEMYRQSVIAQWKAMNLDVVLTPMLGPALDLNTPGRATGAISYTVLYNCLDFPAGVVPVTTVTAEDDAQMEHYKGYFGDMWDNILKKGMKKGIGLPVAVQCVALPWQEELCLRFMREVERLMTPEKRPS
The assay is described as follows: [14C]AEA hydrolysis by N18TG2 cell membranes. It is filed as biochemical. The method, then:
(§3) The effect of compounds on the enzymatic hydrolysis of [^14C] AEA (6 μM) was studied by using membranes prepared from N18TG2 cells incubated with increasing concentrations of compounds in 50 mM Tris-HCL, pH 9, for 30 min at 37° C. [^14C] Ethanolamine produced from [^14C] AEA hydrolysis was quantified by scintillation spectroscopy and used to measure fatty acid amide hydrolase (FAAH) activity. The effect of compounds on the uptake of AEA by RBL-2H3 cells was studied with a procedure analogous to that described in Melck, ibid., and modified as described in Hilliard et al., J. Neurochem. 69:631-638 (1997). Cells were incubated with [^14C] AEA (4μM) for 5 min. at 37° C., in the presence or absence of varying concentrations of the inhibitors. Residual [1^4C] AEA in the incubation media after extraction with CHCl3/CH30H (2:1 by volume) was used as a measure of the AEA that was taken up by cells.
Accordingly, when the compounds were tested for their capability of inhibiting [^14C] […] This is in agreement with previous observations that Me-AEA, DMH-derivatives of AEA and arvanil are poor substrates for FAAH. The two exceptions were O-1856 and O-1895, which did inhibit the hydrolysis of [^14C] AEA, although not very potently.

Assay [3] has as its target human VR1 receptor (Homo sapiens, UniProt Q8NER1). Briefly: Ca2+ influx (Fluo-3) in HEK-hVR1 cells (Example 2). Particulars: for EC50: VR1 (EC50, nM), Ca2+ in HEK cells with human VR1; for VR1 efficacy: maximal concentration (usually 10 μM), percent of effect of 4 μM ionomycin. Also noted: expressed in transfected cells; host or cells: HEK 293 cells (HEK-hVR1). It counts as cell-based. The method, then: N18TG2 and RBL-2H3 cells were grown as described in Melck et al, Bioch. Biophys. Res. Commun. 262:275-284 (1999). Ionomycin was purchased from Sigma. DMH-arvanil, and six substituted dimethylpentyl (DMP) derivatives of arvanil and met-AEA were synthesized as described in Example 1.
HEK-hVR1 cells were prepared and loaded as described in De Petrocellis, et al., FEBS Lett. 483:52-56 (2000). Experiments were carried out by measuring fluorescence at 25° C. […] Capsazepine (1-5 μM) was added 30 minu. Before the test compounds.
as §2

Assay [4] has as its target T3, CB2 receptors (Rattus norvegicus, UniProt Q9QZN9).
T3 construct: rat spleen membranes, which contain mostly CB2 receptors; from tissue; host or cells: rat spleen membranes
T3 sequence (Q9QZN9 1-360): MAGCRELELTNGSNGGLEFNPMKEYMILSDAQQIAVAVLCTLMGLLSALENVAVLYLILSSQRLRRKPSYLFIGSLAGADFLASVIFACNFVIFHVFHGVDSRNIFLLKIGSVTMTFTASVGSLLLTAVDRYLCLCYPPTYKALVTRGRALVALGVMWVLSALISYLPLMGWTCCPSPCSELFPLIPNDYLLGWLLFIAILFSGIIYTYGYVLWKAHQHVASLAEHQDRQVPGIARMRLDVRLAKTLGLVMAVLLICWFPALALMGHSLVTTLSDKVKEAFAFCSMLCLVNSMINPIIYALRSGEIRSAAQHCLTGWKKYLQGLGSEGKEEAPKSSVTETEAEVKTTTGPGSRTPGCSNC
Briefly: CB2 binding, displacement of [3H]WIN55,212-2 from rat spleen membranes. The method, then: as §1, §2
The hydroxy analog is much less CB1 vs. CB2 selective in both series.

Assay [5] has as its target T1, CB1 receptors. Briefly: Agonist-stimulated [35S]GTPγS binding, rat hippocampal membranes.
The test system of assay [6] is mice. Briefly: Mouse 'tetrad' of tests after i.v. administration (Example 2). The note with it: Mus musculus, iv.
In assay [7] the test system is anandamide membrane transporter (AMT). It is filed as cell-based, rat. The note with it: [14C]AEA uptake, RBL-2H3 cells. The method, then: as §3
In consideration of the potent inhibition of the AMT previously observed with arvanil and its derivatives (see Melck, ibid), the seven compounds were also tested for their inhibitory effect on [^4C] […] Thus, the results in Table 1 confirm the existence of a partial overlap between the ligand recognition properties of VR1 receptors and the AMT (14.24).

The mark [8] stands for this setting: determined in the presence of PMSF, [3H]CP 55,940, PMSF 100 μM.
Setting [9] is: read-out: Average ED50 for the four effects.
Setting [10] is: read-out: R.I. (relative immobility) ED50.
The mark [11] stands for this setting: read-out: R.T. (rectal temperature) ED50.
[12] abbreviates: read-out: S.A. (spontaneous activity) ED50.
[13] abbreviates: read-out: T.F. (tail-flick) ED50.

T1 sequence (P20272 whole entry): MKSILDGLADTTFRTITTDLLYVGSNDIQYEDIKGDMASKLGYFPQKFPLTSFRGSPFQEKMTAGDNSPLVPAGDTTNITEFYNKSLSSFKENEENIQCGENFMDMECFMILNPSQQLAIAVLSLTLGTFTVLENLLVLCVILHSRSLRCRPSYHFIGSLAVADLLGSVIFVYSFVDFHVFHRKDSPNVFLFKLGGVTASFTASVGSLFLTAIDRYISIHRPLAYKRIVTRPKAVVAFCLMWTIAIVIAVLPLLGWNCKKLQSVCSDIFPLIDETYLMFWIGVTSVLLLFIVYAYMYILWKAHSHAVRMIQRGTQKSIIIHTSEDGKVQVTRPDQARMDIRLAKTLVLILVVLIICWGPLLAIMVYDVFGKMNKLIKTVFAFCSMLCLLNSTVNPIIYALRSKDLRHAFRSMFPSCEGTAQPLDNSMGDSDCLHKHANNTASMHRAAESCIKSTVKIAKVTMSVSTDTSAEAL
Chain of human VR1 receptor (Q8NER1 whole entry): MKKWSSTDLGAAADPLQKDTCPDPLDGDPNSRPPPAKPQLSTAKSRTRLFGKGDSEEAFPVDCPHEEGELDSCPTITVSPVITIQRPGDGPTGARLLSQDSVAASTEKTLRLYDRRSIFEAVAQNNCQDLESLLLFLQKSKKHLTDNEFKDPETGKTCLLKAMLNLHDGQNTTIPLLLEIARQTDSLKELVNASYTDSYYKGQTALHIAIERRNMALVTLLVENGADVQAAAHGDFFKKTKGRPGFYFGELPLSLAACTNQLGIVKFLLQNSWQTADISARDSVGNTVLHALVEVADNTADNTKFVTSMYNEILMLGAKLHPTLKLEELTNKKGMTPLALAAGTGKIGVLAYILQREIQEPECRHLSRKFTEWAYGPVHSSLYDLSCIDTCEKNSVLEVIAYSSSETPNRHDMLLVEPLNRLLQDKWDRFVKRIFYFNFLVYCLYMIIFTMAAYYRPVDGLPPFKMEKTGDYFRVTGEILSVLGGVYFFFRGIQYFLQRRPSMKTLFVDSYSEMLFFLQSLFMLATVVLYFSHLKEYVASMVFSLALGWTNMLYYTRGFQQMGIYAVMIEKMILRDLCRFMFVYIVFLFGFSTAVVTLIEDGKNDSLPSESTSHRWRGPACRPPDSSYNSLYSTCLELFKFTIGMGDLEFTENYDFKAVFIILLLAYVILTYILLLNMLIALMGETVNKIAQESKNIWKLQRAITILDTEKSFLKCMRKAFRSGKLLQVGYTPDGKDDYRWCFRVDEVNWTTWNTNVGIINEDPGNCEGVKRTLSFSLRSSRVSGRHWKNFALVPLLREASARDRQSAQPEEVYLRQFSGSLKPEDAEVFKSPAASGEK

For `COc1cc(CNC(=O)CCC/C=C\C/C=C\C/C=C\C/C=C\C(C)(C)CCCCBr)ccc1O` [Compound O-1861, 20-Bromo-16,16-dimethyl-eicosa-5,8,11,14-all-cis-tetraenoic acid (4-hydroxy-3-methoxy-benzyl) amide], the Ki in assay [1] (setting [8]) is 24.3 ± 2.6 nM; in assay [1] ([3H]CP 55,940, without PMSF), 32.6 ± 1.2 nM; in assay [4], over 10000 nM. For the same compound, the IC50 in assay [2] is over 50000 nM; in assay [7] it was 13500 nM. In addition, the figures for the EC50 in assay [3] and in assay [5] were 30 ± 0.2 nM and 70 nM, respectively. Further, the VR1 efficacy in assay [3] is given as 74.0 ± 4.5%. For the same compound, the maximum response (Emax) in assay [5] (read-out: GTPγS binding (Emax)) amounted to 32%. In addition, the median effective dose (ED50) in assay [6] (setting [9]) turned out to be 0.068 mg/kg; in assay [6] (setting [10]) it was 0.055 mg/kg; in assay [6] (setting [11]), 0.053 mg/kg; in assay [6] (setting [12]) it was 0.06 mg/kg; in assay [6] (setting [13]), 0.104 mg/kg.
With `COc1cc(CNC(=O)CCC/C=C\C/C=C\C/C=C\C/C=C\C(C)(C)CCCCC#N)ccc1O` [Compound O-1895, 20-Cyano-16,16-dimethyl-eicosa-5,8,11,14-all-cis-tetraenoic acid (4-hydroxy-3-methoxy-benzyl) amide], the Ki amounted to 44.8 ± 8.3 nM in assay [1] (setting [8]); 67 ± 7.5 nM in assay [1] ([3H]CP 55,940, without PMSF); 5000 ± 850 nM in assay [4]. The 50% inhibitory concentration (IC50) came out at 18000 ± 2700 nM in assay [2] and 38400 ± 3100 nM in assay [7]. In assay [3], the midpoint of the response, the EC50, lay at 1 ± 0.2 nM. The same compound registered a VR1 efficacy in assay [3] of 83.1 ± 6.1%. Also, the ED50 is 0.219 mg/kg in assay [6] (setting [9]); 0.168 mg/kg in assay [6] (setting [10]); 0.179 mg/kg in assay [6] (setting [11]); 0.265 mg/kg in assay [6] (setting [12]); 0.263 mg/kg in assay [6] (setting [13]).
Regarding `CCCCCCC(C)(C)/C=C\C/C=C\C/C=C\C/C=C\CCCC(=O)NCc1ccc(O)c(OC)c1` [Compound O-1839, 16,16-Dimethyl-docosa-5,8,11,14-all-cis-tetraenoic acid (4-hydroxy-3-methoxy-benzyl) amide], the Ki was 201 ± 4.1 nM in assay [1] (setting [8]); 262 nM in assay [1] ([3H]CP 55,940, without PMSF); over 10000 nM in assay [4]. Further, the half-maximal inhibitory concentration (IC50) in assay [2] is over 50000 nM; in assay [7], 19300 ± 2300 nM. Besides, in assay [3], a half-maximal response (EC50) required 0.7 ± 0.08 nM. In assay [3], this compound showed a VR1 efficacy of 71.9 ± 4.5%. Moreover, the ED50 in assay [6] (setting [9]) came out at 0.078 mg/kg; in assay [6] (setting [11]), 0.08 mg/kg; in assay [6] (setting [12]), 0.08 mg/kg; in assay [6] (setting [13]), 0.074 mg/kg.
